According to ChEMBL document CHEMBL3871286, “Tetrahydroquinoline-based tricyclic amines as potent and selective agonists of the 5-HT2C receptor” (Bioorg Med Chem Lett, 2016):
pEC50, pKi: −log10 of the molar value.

How the values were obtained:
[1] = molecular target: T1, 5-hydroxytryptamine receptor 2C (Homo sapiens, UniProt P28335); test: Agonist activity at unedited 5-HT2C receptor (unknown origin) expressed in HEK293 cells assessed as [3H]inositol phosphate accumulation after 2 hrs by scintillation counting; type: functional, cell-based; details: for EC50: read-out: pEC50 (converted)
T1 sequence (P28335 whole entry): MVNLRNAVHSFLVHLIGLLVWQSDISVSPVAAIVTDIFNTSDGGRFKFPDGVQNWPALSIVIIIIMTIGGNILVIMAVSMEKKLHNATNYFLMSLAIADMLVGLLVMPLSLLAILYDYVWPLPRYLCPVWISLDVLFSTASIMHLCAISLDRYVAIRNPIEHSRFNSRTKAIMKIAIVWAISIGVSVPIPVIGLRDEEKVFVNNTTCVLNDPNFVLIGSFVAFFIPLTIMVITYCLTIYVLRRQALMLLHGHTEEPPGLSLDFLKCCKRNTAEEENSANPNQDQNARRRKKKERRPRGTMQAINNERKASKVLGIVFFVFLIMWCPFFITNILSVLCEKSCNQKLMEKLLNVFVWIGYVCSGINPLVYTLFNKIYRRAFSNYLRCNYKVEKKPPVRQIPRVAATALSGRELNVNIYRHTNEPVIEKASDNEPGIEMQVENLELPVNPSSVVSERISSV

[2] = molecular target: T2, 5-hydroxytryptamine receptor 2C (Homo sapiens) (UniProt P28335); test: Agonist activity at unedited 5-HT2C receptor (unknown origin) expressed in HEK293 cells assessed as [3H]inositol phosphate accumulation at 10 uM after 2 hrs by scintillation counting relative to serotonin; type: functional, cell-based
T2 sequence (whole entry): T1 sequence (P28335 whole entry)

[3] = molecular target: T3, 5-hydroxytryptamine receptor 2B (Homo sapiens, UniProt P41595); test: Agonist activity at 5-HT2B receptor (unknown origin) expressed in HEK293 cells assessed as [3H]inositol phosphate accumulation after 2 hrs by scintillation counting; type: cell-based
T3 sequence (P41595 whole entry): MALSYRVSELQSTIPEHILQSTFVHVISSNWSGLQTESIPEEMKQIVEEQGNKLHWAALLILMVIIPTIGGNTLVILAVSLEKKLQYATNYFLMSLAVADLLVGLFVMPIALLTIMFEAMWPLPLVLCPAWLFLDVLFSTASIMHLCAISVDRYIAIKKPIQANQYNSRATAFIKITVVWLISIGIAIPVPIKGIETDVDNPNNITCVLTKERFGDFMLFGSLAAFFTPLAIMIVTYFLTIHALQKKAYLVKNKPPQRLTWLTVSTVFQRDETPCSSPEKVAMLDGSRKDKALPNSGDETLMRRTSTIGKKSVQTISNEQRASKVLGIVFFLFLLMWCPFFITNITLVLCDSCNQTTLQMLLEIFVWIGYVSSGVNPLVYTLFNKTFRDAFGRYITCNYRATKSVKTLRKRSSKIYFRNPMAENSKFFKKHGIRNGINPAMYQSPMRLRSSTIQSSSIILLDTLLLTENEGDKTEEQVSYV

[4] = molecular target: 5-HT2B receptor (Homo sapiens, UniProt P41595); test: Agonist activity at 5-HT2B receptor (unknown origin) expressed in HEK293 cells assessed as [3H]inositol phosphate accumulation at 10 uM after 2 hrs by scintillation counting relative to serotonin; type: cell-based; details: HEK293 cells expressing 5-HT2B receptor
Sequence of 5-HT2B receptor (P41595 whole entry): as above

[5] = molecular target: 5-HT2A receptor (Homo sapiens, UniProt P28223); test: Agonist activity at 5-HT2A receptor (unknown origin) expressed in HEK293 cells assessed as [3H]inositol phosphate accumulation at 10 uM after 2 hrs by scintillation counting relative to serotonin; type: cell-based; details: HEK293 cells expressing 5-HT2A receptor
Sequence of 5-HT2A receptor (P28223 whole entry): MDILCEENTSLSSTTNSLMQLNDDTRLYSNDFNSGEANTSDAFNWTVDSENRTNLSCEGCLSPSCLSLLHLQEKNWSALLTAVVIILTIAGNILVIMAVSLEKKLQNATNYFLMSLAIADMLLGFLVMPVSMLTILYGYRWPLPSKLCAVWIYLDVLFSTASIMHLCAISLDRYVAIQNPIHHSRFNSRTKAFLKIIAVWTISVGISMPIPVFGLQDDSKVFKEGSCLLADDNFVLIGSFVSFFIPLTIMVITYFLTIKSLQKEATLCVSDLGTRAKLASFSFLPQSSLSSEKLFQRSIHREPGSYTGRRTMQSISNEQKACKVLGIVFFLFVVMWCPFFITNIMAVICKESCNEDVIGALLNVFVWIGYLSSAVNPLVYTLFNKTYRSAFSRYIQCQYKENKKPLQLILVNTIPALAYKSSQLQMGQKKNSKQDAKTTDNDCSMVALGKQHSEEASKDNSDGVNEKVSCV

[6] = molecular target: T4, 5-hydroxytryptamine receptor 2A (Homo sapiens, UniProt P28223); test: Agonist activity at 5-HT2A receptor (unknown origin) expressed in HEK293 cells assessed as [3H]inositol phosphate accumulation after 2 hrs by scintillation counting; type: cell-based
T4 sequence (P28223 whole entry): as above

[7] = molecular target: T4, 5-hydroxytryptamine receptor 2A; test: Displacement of [125I]DOI from recombinant human 5-HT2A receptor expressed in HEK293 cell membranes after 1 hr by scintillation counting
[8] = molecular target: T1, 5-hydroxytryptamine receptor 2C; test: Displacement of [125I]DOI from recombinant human 5-HT2C receptor expressed in HEK293 cell membranes after 1 hr by scintillation counting
[9] = molecular target: T3, 5-hydroxytryptamine receptor 2B; test: Displacement of [125I]DOI from recombinant human 5-HT2B receptor expressed in HEK293 cell membranes after 1 hr by scintillation counting
[10] = test system: Rattus norvegicus; test: Antiobesity activity in Sprague-Dawley rat assessed as reduction in food intake at 5 mg/kg, po administered via oral gavage 30 mins prior to food presentation measured 60 mins post drug administration; type: functional; set-up: scale not given: the % may be the effect or the level left
[11] = test system: Rattus norvegicus; test: Antiobesity activity in Sprague-Dawley rat assessed as reduction in food intake at 1 mg/kg, po administered via oral gavage 30 mins prior to food presentation measured 60 mins post drug administration; type: functional; set-up: scale not given: the % may be the effect or the level left
[12] = test system: Rattus norvegicus; test: Antiobesity activity in Sprague-Dawley rat assessed as reduction in food intake at 10 mg/kg, po administered via oral gavage 30 mins prior to food presentation measured 60 mins post drug administration; type: functional; set-up: scale not given: the % may be the effect or the level left
[13] = test system: Rattus norvegicus; test: Antiobesity activity in Sprague-Dawley rat assessed as reduction in food intake at 3 mg/kg, po administered via oral gavage 30 mins prior to food presentation measured 60 mins post drug administration; type: functional; set-up: scale not given: the % may be the effect or the level left

SMILES	EC50 [1] [nM]	Emax [2] [%]	pEC50 [3]	Emax at 2 h, 10 µM [4] [%]	also measured
COc1cccc2c1N1CCCNC[C@H]1CC2	31.6	17	7.00	55	–
Fc1ccc2c(c1Cl)N1CCNCC1CC2 (stereo unspecified)	6.31	94	8.70	12	–
COc1cc2c(cc1Cl)CC[C@@H]1CNCCCN21	3.98	85	7.20	84	–
COCc1cccc2c1CCC1CNCCN21 (stereo unspecified)	20	113	5.90	77	–
c1cc(CC2CCC2)c2c(c1)N1CCCNCC1CC2 (stereo unspecified)	126	116	< 6.00	–	–
COc1ccc2c(c1)CCC1CNCCN21 (stereo unspecified)	251	101	6.10	57	–
c1ccc(Oc2cccc3c2CCC2CNCCN32)cc1 (stereo unspecified)	100	112	5.20	94	–
COc1ccc2c(c1)CC[C@@H]1CNCCCN21	631	80	5.90	76	–
c1cc(Cc2ccc3c(c2)OCO3)c2c(c1)N1CCNCC1CC2 (stereo unspecified)	6.31	100	5.40	26	Emax at 2 h, 10 µM [5]: 64%; pEC50 [6]: 6.70; pKi [7]: 8.80; pKi [8]: 9.10; pKi [9]: 6.90
CCCc1ccc2c(c1)N1CCNCC1CC2 (stereo unspecified)	63.1	87	6.70	19	–
c1cc(OC2CCC2)c2c(c1)N1CCNCC1CC2 (stereo unspecified)	20	98	6.10	9	–
Cc1cccc2c1CCC1CNCCN21 (stereo unspecified)	2	108	7.50	65	–
c1ccc2c(c1)CC[C@@H]1CCNCCCN21	63.1	86	6.30	53	–
c1cc(CC2CCC2)c2c(c1)N1CCNCC1CC2 (stereo unspecified)	3.16	106	5.70	31	Activity [10]: 63%; Emax at 2 h, 10 µM [5]: 135%; Activity [11]: 27%; Activity [12]: 99%; pEC50 [6]: 5.70; pKi [7]: 8.10; pKi [8]: 9.20; pKi [9]: 7.20
c1ccc2c(c1)CC[C@@H]1CNCCN21	2.51	97	7.20	28	–
c1ccc2c(c1)CC[C@H]1CCNCCCN21	> 10000	–	< 5.00	–	–
Cc1cccc2c1N1CCNCC1CC2 (stereo unspecified)	63.1	86	7.30	10	–
Fc1ccc2c(c1Cc1ccccc1)CCC1CNCCN21 (stereo unspecified)	1	102	6.20	32	Emax at 2 h, 10 µM [5]: 114%; pEC50 [6]: 7.00; pKi [7]: 9.20; pKi [8]: 9.40; pKi [9]: 7.90
Clc1cccc(N2CCNCC2)c1 [CHLOROPHENYLPIPERAZINE]	–	90	–	22	Emax at 2 h, 10 µM [5]: 12%
Clc1cccc2c1N1CCCNCCC1CC2 (stereo unspecified)	25.1	85	7.00	20	–
c1ccc2c(c1)CCC1CCNCCCN21 (stereo unspecified)	–	99	6.00	60	pEC50 ([1]; read-out: EC50): 6.89

SMILES	EC50 [1] [nM]	Emax [2] [%]	pEC50 [3]	Emax at 2 h, 10 µM [4] [%]	also measured
CCCc1ccc2c(c1)CCC1CNCCN21 (stereo unspecified)	20	100	6.20	9	–
c1ccc(-c2cccc3c2CCC2CNCCN32)cc1 (stereo unspecified)	126	97	5.60	72	–
Fc1ccc2c(c1)CC[C@@H]1CNCCCN21	25.1	94	6.20	59	–
c1cc(C2CCC2)c2c(c1)N1CCNCC1CC2 (stereo unspecified)	3.16	110	7.40	112	–
COc1cc2c(c(Cl)c1Cl)N1CCCNC[C@H]1CC2	10	80	–	< 5	–
CCSc1cccc2c1CCC1CNCCN21 (stereo unspecified)	0.316	101	7.10	46	–
c1ccc(Cc2cccc3c2CCC2CNCCN32)cc1 (stereo unspecified)	1.58	104	5.60	20	Emax at 2 h, 10 µM [5]: 85%; pEC50 [6]: 6.90; pKi [7]: 8.80; pKi [8]: 9.20; pKi [9]: 7.40
CC1(C)CC2CNCCN2c2ccccc21 (stereo unspecified)	1260	84	< 5.00	–	–
CC1(C)Cc2ccccc2N2CCNCC21 (stereo unspecified)	> 1000	–	< 6.00	–	–
Clc1ccc2c(c1)CCC1CCNCCCN21 (stereo unspecified)	200	83	6.20	71	–
CC1(C)Cc2cccc(Cl)c2N2CCNCC21 (stereo unspecified)	> 10000	–	7.00	84	pEC50 [6]: < 5.00; pKi [7]: 5.70; pKi [8]: 6.10; pKi [9]: 8.20
COc1cc2c(cc1Cc1ccccc1)CC[C@@H]1CNCCCN21	> 1000	–	< 6.00	–	–
CCCc1cccc2c1CCC1CNCCN21 (stereo unspecified)	0.2	101	6.70	80	Activity [13]: 99%; Emax at 2 h, 10 µM [5]: 104%; Activity [11]: 66%; pEC50 [6]: 6.30; pKi [7]: 8.20; pKi [8]: 9.40; pKi [9]: 7.60
Fc1ccc2c(c1)N1CCNCC1CC2 (stereo unspecified)	0.794	100	7.50	38	–
COc1ccc2c(c1Cl)N1CCCNC[C@H]1CC2	158	72	8.10	7	–
COc1ccc2c(c1)N1CCCNC[C@H]1CC2	79.4	95	6.20	37	–
Fc1ccc2c(c1Cc1ccccc1)CC[C@@H]1CNCCCN21	20	108	5.10	71	–
c1csc(Cc2cccc3c2CCC2CNCCN32)c1 (stereo unspecified)	0.794	106	6.40	24	Emax at 2 h, 10 µM [5]: 94%; pEC50 [6]: 7.10; pKi [7]: 7.60; pKi [8]: 9.50; pKi [9]: 7.60
COc1cccc2c1CC[C@@H]1CNCCCN21	1000	92	6.40	74	–
COc1cc2c(cc1Cl)N1CCCNC[C@H]1CC2	39.8	91	6.80	23	–
Fc1ccc2c(c1)CCC1CNCCN21 (stereo unspecified)	3.16	96	6.90	44	–
